The results in this text go back to PubChem BioAssay (NCI).

Some test systems named below: 786-0 renal; ACHN renal; EKVX NSCLC; HL-60(TB) leukemia; HOP-92 NSCLC; KM12 colon; OVCAR-8 ovarian; SF-295 CNS; SK-MEL-5 melanoma; UACC-62 melanoma.
Test in all cases: NCI tumour cell line growth inhibition, 48 h

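Growth conditions: 96-well plates. Treatment: test compound, 48 hours, 5 concentrations. Analysis: linear interpolation between bracketing concentrations; unreached endpoints set to highest concentration. The concentration for 50% growth inhibition is given as GI50. At the TGI there is no net growth.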 A value given as a limit tells only on which side of the number the result lay.

As for `Nc1n[nH]c(CCc2nc(N)n[nH]2)n1`, the TGI in the assay on 786-0 renal, in the assay with ACHN renal, in the assay with EKVX NSCLC, in the assay with HL-60(TB) leukemia, with HOP-92 NSCLC and in the assay on KM12 colon was > 100 µM in each case. Besides, the TGI in the assay on OVCAR-8 ovarian, with SF-295 CNS, in the assay with SK-MEL-5 melanoma and with UACC-62 melanoma was > 100 µM throughout.
Regarding `O=C1C=CC(CC(=O)c2ccc3ccccc3c2)O1` (stereo not given), the TGI in the assay with 786-0 renal is 39.1 µM; in the assay on ACHN renal it was > 100 µM; in the assay with EKVX NSCLC, > 100 µM; in the assay with HL-60(TB) leukemia, 37.3 µM; in the assay with HOP-92 NSCLC, 47 µM; in the assay on KM12 colon, 31.4 µM. Moreover, the TGI in the assay with OVCAR-8 ovarian is 32.8 µM; in the assay with SF-295 CNS, > 100 µM; with SK-MEL-5 melanoma, > 100 µM; with UACC-62 melanoma it was 34.6 µM.
On to `Nn1c(N=Nc2c(O)[nH]c3c(Cl)cc(Cl)cc23)n[nH]c1=S`, for which the TGI with 786-0 renal, in the assay with ACHN renal, with EKVX NSCLC, in the assay with HL-60(TB) leukemia, in the assay with HOP-92 NSCLC and with KM12 colon was > 100 µM throughout. Further, the TGI in the assay with OVCAR-8 ovarian, in the assay with SF-295 CNS, in the assay on SK-MEL-5 melanoma and in the assay on UACC-62 melanoma was > 100 µM each time.
As for `CC1=CC(=O)N(c2c(C)cccc2Cl)C(C)N1` (stereo not given), the TGI with 786-0 renal, in the assay on ACHN renal, in the assay with EKVX NSCLC, with HL-60(TB) leukemia, with HOP-92 NSCLC and with KM12 colon was > 100 µM in each case. For the same compound, the TGI in the assay with OVCAR-8 ovarian, in the assay on SF-295 CNS, with SK-MEL-5 melanoma and in the assay with UACC-62 melanoma was > 100 µM each time.
Consider `CC(C)COC(=O)c1ccc2[nH]c(O)c(C=Nc3ccc(S(N)(=O)=O)cc3)c2c1`, for which the GI50 with 786-0 renal was 1.21 µM; in the assay with ACHN renal, 0.885 µM; with EKVX NSCLC, 3.97 µM; in the assay with HL-60(TB) leukemia, 0.68 µM; in the assay on HOP-92 NSCLC, 1.45 µM; in the assay with KM12 colon, 1.06 µM. Also, the GI50 was 1.04 µM in the assay on OVCAR-8 ovarian, 1.77 µM with SF-295 CNS, 1.65 µM with SK-MEL-5 melanoma and 1.91 µM with UACC-62 melanoma. The TGI with 786-0 renal worked out at 4.24 µM; with ACHN renal it was 5.8 µM; with EKVX NSCLC, 15.6 µM; in the assay with HL-60(TB) leukemia, 2.38 µM; in the assay on HOP-92 NSCLC, 4.22 µM; in the assay with KM12 colon, 3.87 µM. Also, the TGI with OVCAR-8 ovarian worked out at 4.62 µM; in the assay with SF-295 CNS it was 8.46 µM; with SK-MEL-5 melanoma, 4.46 µM; in the assay with UACC-62 melanoma, 6.08 µM.
As for `O=C(O)C1=C(C(=O)Nc2ccc(NC(=O)C3=C(C(=O)O)C4C=CC3C4)cc2)C2C=CC1C2`, the TGI in the assay with 786-0 renal, with ACHN renal, in the assay with EKVX NSCLC, with HL-60(TB) leukemia, with HOP-92 NSCLC and with KM12 colon was > 100 µM throughout. Further, the TGI in the assay on OVCAR-8 ovarian, with SF-295 CNS, with SK-MEL-5 melanoma and in the assay with UACC-62 melanoma was > 100 µM throughout.
Turning to `O=C(O)c1ccccc1NC(=O)C1CCCCC1`, the TGI in the assay with 786-0 renal, with ACHN renal, in the assay with EKVX NSCLC, in the assay on HL-60(TB) leukemia, in the assay on HOP-92 NSCLC and with KM12 colon was > 100 µM throughout. The TGI in the assay on OVCAR-8 ovarian, with SF-295 CNS, in the assay with SK-MEL-5 melanoma and with UACC-62 melanoma was > 100 µM throughout.
With `O=C1CC(c2ccc(Cl)cc2)Oc2ccccc21` (stereo not given), the TGI is 32.4 µM in the assay on 786-0 renal; > 100 µM with ACHN renal; 54.8 µM in the assay with EKVX NSCLC; 34.1 µM in the assay with HL-60(TB) leukemia; 56.5 µM in the assay with HOP-92 NSCLC; 31.5 µM with KM12 colon. Besides, the TGI was > 100 µM with OVCAR-8 ovarian, > 100 µM in the assay on SF-295 CNS, 27.3 µM with SK-MEL-5 melanoma and 49.8 µM with UACC-62 melanoma.
Consider `COc1ccc2nc(NC(=O)c3cccnc3Nc3cc(OC)c(OC)c(OC)c3)sc2c1`, for which the GI50 was 5.6 µM in the assay with 786-0 renal; 6.47 µM in the assay with ACHN renal; 11.5 µM in the assay on EKVX NSCLC; 32.3 µM in the assay on HL-60(TB) leukemia; 2.24 µM with HOP-92 NSCLC; 4.51 µM with KM12 colon. Moreover, the GI50 was 6.52 µM in the assay with OVCAR-8 ovarian, 8.34 µM with SF-295 CNS, 11.3 µM in the assay on SK-MEL-5 melanoma and 8.45 µM in the assay on UACC-62 melanoma. The TGI is 19.7 µM with 786-0 renal; 20.6 µM with ACHN renal; 55.6 µM in the assay with EKVX NSCLC; > 100 µM in the assay with HL-60(TB) leukemia; 9.5 µM in the assay with HOP-92 NSCLC; 19 µM in the assay on KM12 colon. Further, the TGI worked out at 22.6 µM in the assay on OVCAR-8 ovarian, 27.1 µM with SF-295 CNS, 47.7 µM in the assay on SK-MEL-5 melanoma and 24.6 µM in the assay with UACC-62 melanoma.
As to `O=[N+]([O-])c1ccc(S(=O)(=O)Cc2ccccc2)c2nonc12`, the TGI in the assay with 786-0 renal turned out to be 37.5 µM; in the assay with ACHN renal it was 46.1 µM; with EKVX NSCLC it was 41.8 µM; with HL-60(TB) leukemia, 45.9 µM; in the assay with HOP-92 NSCLC, 39.7 µM; with KM12 colon, 38.7 µM. Moreover, the TGI is 49 µM in the assay with OVCAR-8 ovarian, > 100 µM in the assay with SF-295 CNS, 36.5 µM with SK-MEL-5 melanoma and 35.1 µM in the assay on UACC-62 melanoma.
With `O=C1OC(c2ccccc2)=N/C1=C\c1cccc(F)c1`, the TGI with 786-0 renal is > 100 µM; in the assay on ACHN renal, > 100 µM; in the assay on EKVX NSCLC, > 100 µM; in the assay on HL-60(TB) leukemia it was 61.2 µM; with HOP-92 NSCLC, > 100 µM; in the assay on KM12 colon it was > 100 µM. Moreover, the TGI is 64.9 µM with OVCAR-8 ovarian, > 100 µM in the assay on SF-295 CNS, > 100 µM in the assay on SK-MEL-5 melanoma and > 100 µM with UACC-62 melanoma.
Regarding `O=C1C2Nc3ccccc3SC2C(=O)N1c1ccccc1C(F)(F)F` (stereo not given), the TGI is 68.5 µM in the assay with 786-0 renal; > 100 µM in the assay on ACHN renal; > 100 µM in the assay with EKVX NSCLC; 28.1 µM with HL-60(TB) leukemia; > 100 µM in the assay with HOP-92 NSCLC; > 100 µM with KM12 colon. The TGI in the assay on OVCAR-8 ovarian is > 100 µM; with SF-295 CNS, 46.2 µM; with SK-MEL-5 melanoma, > 100 µM; in the assay with UACC-62 melanoma it was > 100 µM.
As for `O=C(O)/C=C/C(=O)N1C/C(=C\c2ccccc2)C(=O)/C(=C/c2ccccc2)C1`, the TGI amounted to 10.6 µM with 786-0 renal; 20.9 µM in the assay on ACHN renal; 44.3 µM with EKVX NSCLC; 26.6 µM in the assay with HL-60(TB) leukemia; 37.9 µM in the assay with HOP-92 NSCLC; 6.07 µM in the assay on KM12 colon. Besides, the TGI stood at 11.7 µM with OVCAR-8 ovarian, 11.8 µM in the assay on SF-295 CNS, 19 µM in the assay on SK-MEL-5 melanoma and 8.7 µM in the assay on UACC-62 melanoma.
As for `N#CC1=C(Cl)NC(Cl)=C(C#N)C1c1c(Cl)cccc1Cl`, the TGI with 786-0 renal is 68.5 µM; in the assay with ACHN renal it was > 100 µM; in the assay with EKVX NSCLC, > 100 µM; in the assay with HL-60(TB) leukemia, 37.5 µM; in the assay on HOP-92 NSCLC, 80 µM; in the assay with KM12 colon it was 48.6 µM. The TGI in the assay on OVCAR-8 ovarian was 80 µM; in the assay with SF-295 CNS it was > 100 µM; in the assay with SK-MEL-5 melanoma it was 39.1 µM; with UACC-62 melanoma, 73.4 µM.
As to `c1ccc2c(c1)C1=NCCN1c1ccccc1-2`, the TGI with 786-0 renal is 10 µM; with ACHN renal it was 7.36 µM; in the assay on EKVX NSCLC it was 35.5 µM; in the assay with HL-60(TB) leukemia, 5.17 µM; with HOP-92 NSCLC, 21.7 µM; in the assay on KM12 colon it was 14.6 µM. Moreover, the TGI in the assay on OVCAR-8 ovarian was 11.5 µM; with SF-295 CNS, 31.4 µM; in the assay on SK-MEL-5 melanoma it was 6.08 µM; with UACC-62 melanoma it was 13 µM.
For `O=C(Nc1ccn(CCI)c(=O)n1)c1ccccc1`, the TGI with 786-0 renal, with ACHN renal, with EKVX NSCLC, with HL-60(TB) leukemia, in the assay with HOP-92 NSCLC and in the assay with KM12 colon was > 100 µM each time. Moreover, the TGI in the assay on OVCAR-8 ovarian, with SF-295 CNS, in the assay on SK-MEL-5 melanoma and in the assay with UACC-62 melanoma was > 100 µM each time.
Turning to `Cc1ccccc1-n1c(C)nc(-c2ccccc2)cc1=O`, the TGI with 786-0 renal, in the assay with ACHN renal, in the assay on EKVX NSCLC, in the assay on HL-60(TB) leukemia, with HOP-92 NSCLC and with KM12 colon was > 100 µM throughout. The TGI with OVCAR-8 ovarian, with SF-295 CNS, in the assay with SK-MEL-5 melanoma and in the assay with UACC-62 melanoma was > 100 µM in each case.
With `C=C1[C@@H]([C@@]2(C)C=CC(=O)C(C)(C)[C@@H]2CC(=O)OC)CC[C@@]2(C)C(c3ccoc3)OC(=O)[C@H]3O[C@]132` (stereo not given in full), the TGI with 786-0 renal, with ACHN renal, with EKVX NSCLC, with HL-60(TB) leukemia, in the assay with HOP-92 NSCLC and in the assay on KM12 colon was > 100 µM each time. Also, the TGI in the assay with OVCAR-8 ovarian, in the assay on SF-295 CNS, with SK-MEL-5 melanoma and with UACC-62 melanoma was > 100 µM in each case.
